Source: paper PMC10053710, “Influence of Lipidation Pattern of the KR12 Fragment of Peptide LL-37 on Its Antibacterial and Hemolytic Activities” (International Journal of Molecular Sciences, 2023)
Converted amounts (≈) assume the structure as drawn. “And” between values parts separate entries of the source, which are not always exact repeats. Equal entries are not always repeated. Where two headings read alike, the source gives them in different places. Where a SMILES comes first, the peptide text is derived from it. The star is where a group is joined. Octanoyl = CCCCCCCC(=O)*; X1 = CCCCCCC(CCCC)C(=O)*; PhAc = O=C(Cc1ccccc1)*; Bz = O=C(c1ccccc1)*

Assays:
[1] = system: S. aureus ATCC 33591 (MRSA); format: cell-based, Staphylococcus aureus
Experimental: (§1) Tests of the antibacterial activity were carried out as we just described. Briefly, for assays, the following strains of ESKAPE bacteria were chosen: Acinetobacter baumannii ATCC BAA-1605, Enterococcus faecium ATCC 700221, Klebsiella aerogenes ATCC 13048 (formerly Enterobacter aerogenes), Klebsiella pneumoniae ATCC 700603, and Pseudomonas aeruginosa ATCC 9027. Moreover, the reference strains of Staphylococcus aureus were used: S. aureus ATCC 25923, S. aureus ATCC 6538, S. aureus ATCC 33591 (MRSA), S. aureus ATCC 9144, and S. aureus ATCC 12598. Before experiments, all the strains were stored at −80 °C in Roti®-Store cryo vials (Carl Roth GmbH, Karlsruhe, Germany). To evaluate the activity of the compounds, bacteria were transferred into fresh Mueller–Hinton medium (Becton Dickinson, Warszawa, Poland) and incubated for 24 h at 37 °C. In the next step, bacterial inoculums were seeded on Mueller–Hinton agar plates (BioMaxima SA, Lublin, Poland) and incubated again for 24 h. The MIC values were determined using the broth microdilution method according to the Clinical and Laboratory Standards Institute Protocol. The initial inoculums of bacteria (0.5 × 10^5 colony forming units (CFU)/mL) prepared in Mueller–Hinton broth were exposed to the ranging concentrations of peptides (1–512 µg/mL). The experiments were conducted on 96-well microtiter plates, with a final volume of 100 µL. The inoculum densities were checked spectrophotometrically (Multiskan™ GO Microplate Spectrophotometer, Thermo Scientific, Waltham, MA, USA) at 600 nm. The results were read after incubation for 18 h at 37 °C. The MIC values were the lowest concentration at which a visible growth of microorganisms was inhibited. All experiments were conducted in triplicate. Moreover, positive (growth) and negative (sterility) controls were included.

S. aureus ATCC 25923 = format: cell-based, Staphylococcus aureus
Experimental: as §1

S. aureus ATCC 6538 = format: cell-based, Staphylococcus aureus
Experimental: as §1

S. aureus ATCC 12598 = format: cell-based, Staphylococcus aureus
Experimental: as §1

S. aureus ATCC 9144 = format: cell-based, Staphylococcus aureus
Experimental: as §1

[2] = system: human red blood cells (hRBCs); assay: Hemolysis assay; conditions: 4% (v/v) erythrocytes in PBS, peptides 1–512 µg/mL, 1 h at 37 °C, hemoglobin at 540 nm
Experimental: To facilitate a comparison of hemolytic activity between the analogs, MHC5 values were determined. MHC5 is the minimum hemolytic concentration of the compounds that caused the 5% hemolysis of hRBCs.
Briefly, the fresh hRBCs with EDTA as anticoagulant were rinsed three times with PBS through centrifugation at 800× g for 10 min and resuspended in PBS. The serial dilution of peptides (1–512 µg/mL) was prepared in PBS on 96-well plates. Then, the stock RBCs solution was added to the plates to reach a final volume of 100 µL with a 4% concentration of erythrocytes (v/v). The control wells for 0 (RBCs in PBS) and 100% (RBCs in 1% Triton-X 100) hemolysis were also prepared. Then, the plates were incubated for 1 h at 37 °C and centrifuged at 800× g for 10 min at 4 °C (Sorvall ST 16R Centrifuge, Thermo Scientific, Waltham, MA, USA). After centrifugation, the supernatant was carefully transferred to new microtiter plates and the release of hemoglobin was measured at 540 nm (Multiskan™ GO Microplate Spectrophotometer, Thermo Scientific, Waltham, MA, USA). The percentage of hemolysis was calculated based on wells with 100% hemolysis.

[3] = system: Klebsiella pneumoniae ATCC 700603; format: cell-based
Experimental: as §1

[4] = system: Pseudomonas aeruginosa ATCC 9027; format: cell-based
Experimental: as §1

[5] = system: Klebsiella aerogenes ATCC 13048; format: cell-based
Experimental: as §1

[6] = system: Enterococcus faecium ATCC 700221; format: cell-based
Experimental: as §1

[7] = 100% = 1% Triton-X 100, ≥ means less than 5% hemolysis up to 512 µg/mL
[8] = MRSA, Mueller–Hinton broth, 0.5 × 10^5 CFU/mL, peptides 1–512 µg/mL, 18 h at 37 °C, triplicate
[9] = Mueller–Hinton broth, 0.5 × 10^5 CFU/mL, peptides 1–512 µg/mL, 18 h at 37 °C, triplicate

Row | SMILES | MIC S. aureus 33591 ([1]; ATCC 33591, 18 h) [µg/mL] | MIC S. aureus 25923 (S. aureus ATCC 25923; ATCC 25923, 18 h) [µg/mL] | MIC S. aureus 6538 (S. aureus ATCC 6538; ATCC 6538, 18 h) [µg/mL] | MIC S. aureus 12598 (S. aureus ATCC 12598; ATCC 12598, 18 h) [µg/mL] | MIC S. aureus 9144 (S. aureus ATCC 9144; ATCC 9144, 18 h) [µg/mL] | MIC A. baumannii (18 h) [µg/mL] | MIC K. pneumoniae ([3]; ATCC 700603, 18 h) [µg/mL] | MIC P. aeruginosa ([4]; ATCC 9027, 18 h) [µg/mL] | MIC K. aerogenes ([5]; ATCC 13048, 18 h) [µg/mL] | MIC E. faecium ([6]; ATCC 700221, 18 h) [µg/mL] | MHC5 (minimum hemolytic concentration causing 5% hemolysis of hRBCs) [2, 7] [µg/mL] | MIC S. aureus 33591 [1, 8] [µg/mL] | MIC S. aureus 25923 (S. aureus ATCC 25923; [9]) [µg/mL] | MIC S. aureus 6538 (S. aureus ATCC 6538; [9]) [µg/mL] | MIC S. aureus 12598 (S. aureus ATCC 12598; [9]) [µg/mL] | MIC S. aureus 9144 (S. aureus ATCC 9144; [9]) [µg/mL] | MIC A. baumannii [9] [µg/mL] | MIC K. pneumoniae [3, 9] [µg/mL] | MIC P. aeruginosa [4, 9] [µg/mL] | MIC K. aerogenes [5, 9] [µg/mL] | further results
1 | CCCCCCCC(=O)N[C@@H](CCCCN)C(=O)N[C@@H](CCCNC(=N)N)C(=O)N[C@H](C(=O)N[C@H](C(=O)N[C@@H](CCC(N)=O)C(=O)N[C@@H](CCCNC(=N)N)C(=O)N[C@H](C(=O)N[C@@H](CCCCN)C(=O)N[C@@H](CC(=O)O)C(=O)N[C@@H](Cc1ccccc1)C(=O)N[C@@H](CC(C)C)C(=O)N[C@@H](CCCNC(=N)N)C(N)=O)[C@@H](C)CC)C(C)C)[C@@H](C)CC [II, C8^α-KR12-NH2] (Octanoyl-KRIVQRIKDFLR-NH2) | 4 (≈ 2.36 µM) | 4 (≈ 2.36 µM) | 2 (≈ 1.18 µM) | 4 (≈ 2.36 µM) | 4 (≈ 2.36 µM) | 8 (≈ 4.71 µM) | 8 (≈ 4.71 µM) | 16 (≈ 9.43 µM) | 4 (≈ 2.36 µM) | 4 (≈ 2.36 µM) | 64 |  |  |  |  |  |  |  |  |  | 
2 | CCCCCCC(CCCC)C(=O)N[C@@H](CCCCN)C(=O)N[C@@H](CCCNC(=N)N)C(=O)N[C@H](C(=O)N[C@H](C(=O)N[C@@H](CCC(N)=O)C(=O)N[C@@H](CCCNC(=N)N)C(=O)N[C@H](C(=O)N[C@@H](CCCCN)C(=O)N[C@@H](CC(=O)O)C(=O)N[C@@H](Cc1ccccc1)C(=O)N[C@@H](CC(C)C)C(=O)N[C@@H](CCCNC(=N)N)C(N)=O)[C@@H](C)CC)C(C)C)[C@@H](C)CC (stereo partly drawn) [XIII, 2-Buthyloctanoic acid-KR12-NH2] (X1-KRIVQRIKDFLR-NH2) | 4 (≈ 2.28 µM) | 8 (≈ 4.56 µM) | 32 (≈ 18.3 µM) | 4 (≈ 2.28 µM) | 2 (≈ 1.14 µM) | 4 (≈ 2.28 µM) | 8 (≈ 4.56 µM) | 32 (≈ 18.3 µM) | 8 (≈ 4.56 µM) | 2 (≈ 1.14 µM) |  |  |  |  |  |  |  |  |  |  | MHC5 (minimum hemolytic concentration causing 5% hemolysis of hRBCs) ([2]; fresh batch of blood (footnote a)): 8 µg/mL and 16 ^a µg/mL
3 | CC[C@H](C)[C@H](NC(=O)[C@H](CCCNC(=N)N)NC(=O)[C@H](CCC(N)=O)NC(=O)[C@@H](NC(=O)[C@@H](NC(=O)[C@H](CCCNC(=N)N)NC(=O)[C@H](CCCCN)NC(=O)c1ccccc1)[C@@H](C)CC)C(C)C)C(=O)N[C@@H](CCCCN)C(=O)N[C@@H](CC(=O)O)C(=O)N[C@@H](Cc1ccccc1)C(=O)N[C@@H](CC(C)C)C(=O)N[C@@H](CCCNC(=N)N)C(N)=O [XV, Benzoic acid-KR12-NH2] (Bz-KRIVQRIKDFLR-NH2) |  |  |  |  |  |  |  |  |  |  | ≥512 | 64 (≈ 38.2 µM) | 64 (≈ 38.2 µM) | 8 (≈ 4.78 µM) | 32 (≈ 19.1 µM) | 32 (≈ 19.1 µM) | 32 (≈ 19.1 µM) | 64 (≈ 38.2 µM) | 128 (≈ 76.4 µM) | 64 (≈ 38.2 µM) | MIC E. faecium [6, 9]: 8 µg/mL (≈ 4.78 µM)
4 | CC[C@H](C)[C@H](NC(=O)[C@H](CCCNC(=N)N)NC(=O)[C@H](CCC(N)=O)NC(=O)[C@@H](NC(=O)[C@@H](NC(=O)[C@H](CCCNC(=N)N)NC(=O)[C@H](CCCCN)NC(=O)Cc1ccccc1)[C@@H](C)CC)C(C)C)C(=O)N[C@@H](CCCCN)C(=O)N[C@@H](CC(=O)O)C(=O)N[C@@H](Cc1ccccc1)C(=O)N[C@@H](CC(C)C)C(=O)N[C@@H](CCCNC(=N)N)C(N)=O [XVI, Phenylacetic acid-KR12-NH2] (PhAc-KRIVQRIKDFLR-NH2) |  |  |  |  |  |  |  |  |  |  | 256 | 64 (≈ 37.9 µM) | 128 (≈ 75.8 µM) | 16 (≈ 9.47 µM) | 32 (≈ 18.9 µM) | 32 (≈ 18.9 µM) | 32 (≈ 18.9 µM) | 64 (≈ 37.9 µM) | 128 (≈ 75.8 µM) | 64 (≈ 37.9 µM) | MIC E. faecium [6, 9]: 8 µg/mL (≈ 4.74 µM)

More lines, main results first:

Row | MIC S. aureus 33591 ([1]; ATCC 33591, 18 h) [µg/mL] | MIC S. aureus 25923 (S. aureus ATCC 25923; ATCC 25923, 18 h) [µg/mL] | MIC S. aureus 6538 (S. aureus ATCC 6538; ATCC 6538, 18 h) [µg/mL] | MIC S. aureus 12598 (S. aureus ATCC 12598; ATCC 12598, 18 h) [µg/mL] | MIC S. aureus 9144 (S. aureus ATCC 9144; ATCC 9144, 18 h) [µg/mL] | MIC A. baumannii (18 h) [µg/mL] | MIC K. pneumoniae ([3]; ATCC 700603, 18 h) [µg/mL] | MIC P. aeruginosa ([4]; ATCC 9027, 18 h) [µg/mL] | MIC K. aerogenes ([5]; ATCC 13048, 18 h) [µg/mL] | MIC E. faecium ([6]; ATCC 700221, 18 h) [µg/mL] | SMILES | MHC5 (minimum hemolytic concentration causing 5% hemolysis of hRBCs) [2, 7] [µg/mL] | MIC S. aureus 33591 [1, 8] [µg/mL] | MIC S. aureus 25923 (S. aureus ATCC 25923; [9]) [µg/mL] | MIC S. aureus 6538 (S. aureus ATCC 6538; [9]) [µg/mL] | MIC S. aureus 12598 (S. aureus ATCC 12598; [9]) [µg/mL] | MIC S. aureus 9144 (S. aureus ATCC 9144; [9]) [µg/mL] | MIC A. baumannii [9] [µg/mL] | MIC K. pneumoniae [3, 9] [µg/mL] | MIC P. aeruginosa [4, 9] [µg/mL] | MIC K. aerogenes [5, 9] [µg/mL] | further results
5 | 64 (≈ 35.1 µM) | 64 (≈ 35.1 µM) | 8 (≈ 4.38 µM) | 32 (≈ 17.5 µM) | 32 (≈ 17.5 µM) | 32 (≈ 17.5 µM) | 16 (≈ 8.77 µM) | 16 (≈ 8.77 µM) | 64 (≈ 35.1 µM) | 4 (≈ 2.19 µM) | CCCCCCCC(=O)NCCCC[C@H](N)C(=O)N[C@@H](CCCCN)C(=O)N[C@@H](CCCNC(=N)N)C(=O)N[C@H](C(=O)N[C@H](C(=O)N[C@@H](CCC(N)=O)C(=O)N[C@@H](CCCNC(=N)N)C(=O)N[C@H](C(=O)N[C@@H](CCCCN)C(=O)N[C@@H](CC(=O)O)C(=O)N[C@@H](Cc1ccccc1)C(=O)N[C@@H](CC(C)C)C(=O)N[C@@H](CCCNC(=N)N)C(N)=O)[C@@H](C)CC)C(C)C)[C@@H](C)CC [V, C8^ε-Lys-KR12-NH2] (H-K(Octanoyl)KRIVQRIKDFLR-NH2) | 256 |  |  |  |  |  |  |  |  |  | 
6 | 32 (≈ 18.9 µM) | 32 (≈ 18.9 µM) | 4 (≈ 2.36 µM) | 32 (≈ 18.9 µM) | 16 (≈ 9.43 µM) | 8 (≈ 4.71 µM) | 32 (≈ 18.9 µM) | 64 (≈ 37.7 µM) | 32 (≈ 18.9 µM) | 8 (≈ 4.71 µM) | CCCCCCCC(=O)NCCCC[C@H](NC(=O)[C@@H](NC(=O)[C@H](CCCNC(=N)N)NC(=O)[C@H](CCC(N)=O)NC(=O)[C@@H](NC(=O)[C@@H](NC(=O)[C@H](CCCNC(=N)N)NC(=O)[C@@H](N)CCCCN)[C@@H](C)CC)C(C)C)[C@@H](C)CC)C(=O)N[C@@H](CC(=O)O)C(=O)N[C@@H](Cc1ccccc1)C(=O)N[C@@H](CC(C)C)C(=O)N[C@@H](CCCNC(=N)N)C(N)=O [VIII, [Lys^ε(C8)]^8KR12-NH2] (H-KRIVQRIK(Octanoyl)DFLR-NH2) | 64 |  |  |  |  |  |  |  |  |  | 
